Counter-ions that a name gives are not always drawn.
Tests used:
Set-up in all cases: species or system rat (male Charles River CD)
[1] = molecular target: T1, D2-like dopamine receptors (Rattus norvegicus, UniProt P61169); assay: inhibition of tritiated (S)-sulpiride binding to D2-like dopamine receptors in rat striatal tissue; settings: rat striatum
T1 construct: Striatal tissue from the brains of male Charles River CD rats; from tissue; host or cells: rat striatum (male Charles River CD rats), membrane preparation
Procedure: Striatal tissue from the brains of male Charles River CD rats weighing between 140-250 g were homogenised in ice-cold 50 mM Tris-HCl buffer (pH 7.7 when measured at 25° C.) and centrifuged at 40,000 g for 10 minutes. The pellet was resuspended in Tris salts buffer (50 mM Tris-HCl buffer containing 120 mM NaCl, 5 mM KCl, 2 mM CaCl2 and 1 mM MgCl2 with the addition of 6 mM ascorbic acid; pH 7.7 when measured at 25° C.), and again centrifuged at 40,000 g for 10 minutes. The final pellet was stored at -80° C. Before each test the pellet was resuspended in Tris salts buffer (equivalent to 2 mg wet weight of tissue/ml). […]
(§1) The filters were washed with ice-cold Tris-HCl buffer and dried. The filters were punched out in to vials, scintillation fluid added and were left for about 20 hours before being counted by scintillation spectrophotometry. The percentage displacement of specific binding of the tritiated ligand was calculated for the single concentration (10^-6 M) of test compound. […] The inhibition coefficient Ki was then calculated using the formula [formula] in which [ligand] is the concentration of the tritiated ligand used and KD is the equilibrium dissociation constant for the ligand.

5-HT1A receptors = molecular target: T2, 5-HT1A receptors (Rattus norvegicus, UniProt P19327); assay: inhibition of [3H]8-OH-DPAT binding to 5-HT1A receptors in rat hippocampal tissue; settings: rat hippocampus
T2 construct: Hippocampal tissue from the brains of male Charles River CD rats; from tissue; host or cells: rat hippocampus (male Charles River CD rats), membrane preparation
T2 sequence (P19327 1-422): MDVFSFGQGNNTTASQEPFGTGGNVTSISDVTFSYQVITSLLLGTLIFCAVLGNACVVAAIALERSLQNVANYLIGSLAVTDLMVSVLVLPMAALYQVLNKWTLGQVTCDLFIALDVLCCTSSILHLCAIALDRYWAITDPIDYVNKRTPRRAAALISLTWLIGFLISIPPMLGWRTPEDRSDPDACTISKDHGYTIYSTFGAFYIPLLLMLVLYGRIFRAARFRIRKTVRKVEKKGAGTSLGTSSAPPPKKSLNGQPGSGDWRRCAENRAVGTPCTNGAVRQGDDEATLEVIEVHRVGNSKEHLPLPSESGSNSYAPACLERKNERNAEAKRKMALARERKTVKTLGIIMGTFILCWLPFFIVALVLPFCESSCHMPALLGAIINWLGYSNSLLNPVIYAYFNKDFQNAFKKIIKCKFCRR
Procedure: Hippocampal tissue from the brains of male Charles River CD rats weighing between 150-250 g were homogenised in ice-cold 50 mM Tris-HCI buffer (pH 7.7) when measured at 25° C., 1:40 w/v) and centrifuged at 30,000 g at 4° C. for 10 minutes. The pellet was rehomogenised in the same buffer, incubated at 37° C. for 10 minutes and centrifuged at 30,000 g at 4° C. for 10 minutes. The final pellet was resuspended in 50 mM Tris-HCl buffer (pH 7.7) containing 4 mM CaCl2, 0.1% L-ascorbic acid and 10 μM pargyline hydrochloride (equivalent to 6.25 mg wet weight of tissue/ml) and used immediately in the binding assay. […]
as §1, with “into” for “in to”, “radioactivity determined” for “were left for about 20 hours before being counted”, “by liquid” for “by”, “counting.” for “spectrophotometry.”

α1-adrenoceptors = assay: inhibition of [7-methoxy-3H]prazosin binding to α1-adrenoceptors in rat whole cortical tissue; settings: rat cortex
Procedure: Whole cortical tissue from the brains of male Charles River CD rats weighing between 150-250 g were homogenised in ice-cold 50 mM Tris-HCl, pH 7.6 (at 25° C.; 1:40 w/v) and centrifuged at 1000 g at 4° C. for 10 minutes. The supernatant was centrifuged at 30,000 g at 4° C. for 10 minutes. The pellet was rehomogenised in 50 mM Tris-HCl, pH 7.6 (1:40 w/v) and centrifuged at 30,000 g at 4° C. for 10 minutes. The final pellet was resuspended in 50 mM Tris-HCl, pH 7.6 (equivalent to 12.5 mg wet weight of tissue/ml) and used immediately in the binding assay. […]
as §1, with “into” for “in to”, “radioactivity determined” for “were left for about 20 hours before being counted”, “by liquid” for “by”, “counting.” for “spectrophotometry.”

T1 sequence (P61169 whole entry): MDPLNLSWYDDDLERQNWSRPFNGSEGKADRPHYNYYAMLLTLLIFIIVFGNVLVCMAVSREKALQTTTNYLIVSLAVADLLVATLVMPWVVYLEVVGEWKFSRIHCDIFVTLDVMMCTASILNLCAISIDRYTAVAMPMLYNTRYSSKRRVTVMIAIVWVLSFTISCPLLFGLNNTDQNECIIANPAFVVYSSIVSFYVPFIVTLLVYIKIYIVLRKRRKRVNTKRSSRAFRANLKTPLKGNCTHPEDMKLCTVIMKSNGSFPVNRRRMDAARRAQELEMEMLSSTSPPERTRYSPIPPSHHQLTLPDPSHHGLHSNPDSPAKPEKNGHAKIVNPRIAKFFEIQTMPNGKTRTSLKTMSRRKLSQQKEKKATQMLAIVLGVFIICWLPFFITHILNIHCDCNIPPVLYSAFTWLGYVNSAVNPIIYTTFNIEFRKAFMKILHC

Row | Ki ([1]; tritiated (S)-sulpiride 1 nM, 4° C., 40 minutes) [nM] | Ki (5-HT1A receptors; [3H]8-OH-DPAT 2 nM, 25° C., 30 minutes) [nM] | Ki (α1-adrenoceptors; [7-methoxy-3H]prazosin 0.1 nM, 30° C., 30 minutes) [nM] | inhibition at 1 µM ([1]; 10^-6 M, tritiated (S)-sulpiride, read-out: % displacement at 10^-6 M (D2-like)) [%] | inhibition at 1 µM (5-HT1A receptors; 10^-6 M, [3H]8-OH-DPAT, read-out: % displacement at 10^-6 M (5-HT1A)) [%] | % displacement at 10^-6 M (α1) (α1-adrenoceptors; 10^-6 M, [7-methoxy-3H]prazosin, 30 min, 1 µM) [%] | SMILES
1 | 7.6 | 3.1 | 12.4 |  |  |  | Nc1ncccc1C(=O)NCC1CCN(C[C@H]2COc3ccc4[nH]ccc4c3O2)CC1 [Example 1, (S)-2-amino-N-{[1-(2,3-dihydro-7H-1,4-dioxino[2,3-e]indol-2-ylmethyl)-4-piperidyl]methyl}pyridine-3-carboxamide]
2 |  |  |  | 122 | 99 | 93 | O=C(NCC1CCN(C[C@H]2COc3ccc4[nH]ccc4c3O2)CC1)c1ccccn1 [Example 2, (S)-N-{[1-(2,3-dihydro-7H-1,4-dioxino[2,3-e]indol-2-ylmethyl)-4-piperidyl]methyl}pyridine-2-carboxamide 1.3 fumarate, 0.25 diethyl ether, 1.0 hydrate]
